Key:
[1] = system: CD184 expression of Ramos cells; assay: CD184 (CXCR4) surface expression by flow cytometry; format: cell-based, Human
Method: (§1) And BCL cells could migrate toward the chemokine CXCL12 upon activation of its receptor CD184 [27].
The expression of surface molecules was analyzed by flow cytometry, using the following monoclonal antibody CD184 (CXCR4), and the relevant isotype controls mAbs (BD biosciences). A total of 10^6 mononuclear cells were incubated for 30 minutes at 4°C with saturating concentrations of mAbs, and the cells were washed twice and analyzed with a flow cytometer (BD FACSCalibur, BD, USA).

[2] = system: Syk/ERK, Src/FAK and JAK2/STAT3 signaling pathways in Ramos cell; assay: Western blot of Syk/ERK, Src/FAK and JAK2/STAT3 signaling; format: cell-based, Human; parameters: Syk, Src, JAK2 phosphorylation (in words): dose or concentration left out as unconfirmed; settings: 24 hours
Method: (§2) To understand the mechanism of antitumor activities in vivo, pivotal protein activities of Syk/ERK, Src/FAK and JAK2/STAT3 signaling pathways were detected by Western blot analysis. […] Immunohistochemistry assays were performed using tumor tissues isolated from the Ramos tumor model at the end of treatment.
Figure 7 Western blot and histochemical analyses of tumor tissues from the Ramos model (A) SKLB-850 inhibited Syk/ERK, Src/FAK and JAK2/STAT3 signaling pathways. The Ramos cells were incubated for 24 hours in medium containing vehicle, SKLB-850, or R788, and then lysed for western blot assay. (B) H&E staining and immunohistochemical staining of NF-κB, p-Src, p-STAT3 and p-Syk in tumor tissues isolated from vehicle, R788 or SKLB-850 treated groups. SKBL-850 inhibited p-JAK2, p-FAK, p-Src, p-ERK and p-Syk expression in RAMOS cells.
For Ramos cell immunoplot studies, cancer cells were incubated with vehicle, R788, or SKLB-850 for 24 hours, and then lysed in RIPA buffer (Beyotime, China) containing Roche protease inhibitor cocktail, and the protein concentrations were determined by the Bradford method. […]

[3] = system: CCL3 secretion of Ramos cells; assay: ELISA of chemokine secretion after anti-IgM and anti-CD40 stimulation; format: cell-based, Human; settings: anti-IgM and anti-CD40 induced, 0.1μM, 18 hours, n=3, stimulated without compound 3443.00 ± 134.80 pg/mL
Method: (§3) We then measured the concentrations of CCL3 and CCL4 in supernatant of Ramos cells cultured in medium, or medium supplemented with anti-IgM and anti-CD40 in the presence or absence of SKLB-850 after 18 hours. CCL3 and CCL4 are chemokines, which appear to correlate with the signaling capacity of the BCR [26]. As shown in Figure 3A and 3B, SKLB-850 inhibited the increased secretion of CCL3 and CCL4 stimulated by anti-IgM and anti-CD40. The mean CCL3 and CCL4 concentrations in supernatants of Ramos cells after anti-IgM and CD40 stimulation were 3443.00 ± 134.80 pg/mL and 134.80 ± 1.90 pg/mL, respectively.
(§4) To evaluate the effect of SKLB-850 on CCL3 and CCL4 secretion after stimulation of Ramos cells with anti-IgM (30 μg/ml) and anti-CD40 (10 μg/ml), chemokine levels were measured in supernatants of activated BCL cells, as previously described. After 18 hours of anti-IgM and anti-CD40 co-culture, supernatants were harvested and assayed for CCL3 and CCL4 by quantitative enzyme-linked immunosorbent assays according to the manufacturer’s instructions (Quantikine, R&D Systems, Minneapolis, MN, USA).

[4] = system: CCL4 secretion of Ramos cells; assay: as above; format: cell-based, Human; settings: anti-IgM and anti-CD40 induced, 0.1μM, 18 hours, n=3, stimulated without compound 134.80 ± 1.90 pg/mL
Method: as §3, §4

Ramos cells = assay: Chemotaxis assay toward CXCL12 (transwell); format: cell-based, Human; settings: CXCL12 200ng/mL, 12 hours
Method: as §1
Chemotaxis assay was performed as previously described. Briefly, 1×10^6 Ramos cells were cultured in RPMI 1640 containing 0.5% bovine serum albumin and were pre-incubated for 30 minutes with SKLB-850, R788 or DMSO, and then they were added to the inserts of transwell chambers (5μm poresize; Corning). Inserts were then transferred into wells containing CXCL12 (200ng/mL). After 12 hours, cell count was determined for the upper and lower well in duplicates using a flow cytometer (Novocyte Technologies, China). Chemotaxis indices were calculated as: [number of cells in the lower chamber×100] / [number of cells in the lower and upper chambers]. The chemotaxis index with SKLB-850 was calculated as percentage of the DMSO index.

[5] = system: Ki67 and CD20 in Ramos tumor tissues; assay: Immunohistochemistry of Ki67 and CD20 in tumor tissues from the Ramos model; format: in vivo, NOD/SCID mice; settings: mouse tumor tissues
Source text: The ability of inducing apoptosis of SKLB-850 in tumor tissues was examined by TUNEL. […] We then examined apoptotic tumor cells in B-cell lymphoma samples from BCL patients after SKLB-850 treatment by FCM. As shown in Figure 6C and 6F, SKLB-850 induced cell apoptosis (14.10 ± 4.04%), and R788 had the same effect but relatively weak (7.60 ± 0.52%). To better understand the mechanism of antitumor activities in vivo, Ki67 and CD20 in mouse tumor tissues were detected by immunohischemistry; Ki67 was a marker of proliferation in the diagnosis of tumors and CD20 was highly expressed in B cell lymphomas.
Paraffin sections from each group were stained with hematoxylineosin (H&E). For immunohistochemistry studies, tumor tissues in the Ramos model were performed and the following antibodies were used: phospho-Src (Cell Signaling Technology, 1:100), phospho-FAK (Cell Signaling Technology, 1:100), phospho-Stat3 (Cell Signaling Technology, 1:100), NF-κB p-65(Cell Signaling Technology, 1:100) and phospho-Syk (Cell Signaling Technology, 1:100). Additionally, Rat anti-mouse CD31 antibody (BD Biosciences, USA) and anti-Ki67 antibody (Gene Tech) were used to determine vessel density and cell proliferation following the manufacturer’s protocol, respectively. A DAKO polymer secondary antibody system (Dako Envision 1K4007) was used for secondary detection. […]

[6] = system: Syk, Src/FAK, JAK2/STAT3 and NF-κB p65 phosphorylation in Ramos tumor tissues; assay: Immunohistochemistry of phospho-proteins in tumor tissues from the Ramos tumor model; format: in vivo, NOD/SCID mice
Method: as §2
Paraffin sections from each group were stained with hematoxylineosin (H&E). For immunohistochemistry studies, tumor tissues in the Ramos model were performed and the following antibodies were used: phospho-Src (Cell Signaling Technology, 1:100), phospho-FAK (Cell Signaling Technology, 1:100), phospho-Stat3 (Cell Signaling Technology, 1:100), NF-κB p-65(Cell Signaling Technology, 1:100) and phospho-Syk (Cell Signaling Technology, 1:100). Additionally, Rat anti-mouse CD31 antibody (BD Biosciences, USA) and anti-Ki67 antibody (Gene Tech) were used to determine vessel density and cell proliferation following the manufacturer’s protocol, respectively. A DAKO polymer secondary antibody system (Dako Envision 1K4007) was used for secondary detection. Images were captured using an Olympus digital camera.

## CN1CCN(c2ccc(Nc3ncc(F)c(Nc4ccc(Cl)cc4C(N)=O)n3)cc2)CC1 [SKLB-850, 5-chloro-2-((5-fluoro-2-((4-(4-methylpiperazin-1-yl)phenyl)amino)pyrimidin-4-yl)amino) benzamide]
[1]
  expression of CD184 (in words): decreased the expression of CD184
[2]
  Syk, Src, JAK2 phosphorylation (in words): effectively inhibited
[2]; concentrations between 0.01μMl and 1μM/ml
  phosphorylation levels of ERK, FAK and Stat3 (in words): down-regulated
[3]
  CCL3 level in supernatant: 2303.10 ± 109.40 pg/mL
[4]
  CCL4 level in supernatant: 15.20 ± 0.30 pg/mL
Ramos cells
  Ramos cell chemotaxis toward CXCL12 (in words): reduced the percentage of Ramos cell chemotaxis toward CXCL12
[5]
  CD20 expression (in words): significant reduction
  Ki67 expression (in words): significant reduction
[6]; tumor tissues from the Ramos tumor model
  phosphorylation of NF-κB p65 (in words): inhibited
[6]; tumor tissues from the Ramos tumor model at the end of treatment
  phosphorylations of Syk, Src/FAK and JAK2/STAT3 (in words): inhibited

Reference: PMC5762338, “A novel orally available Syk/Src/Jak2 inhibitor, SKLB-850, showed potent anti-tumor activities in B cell lymphoma (BCL) models” (Oncotarget, 2017)
